Several values for one entry are separate records, joined by “and”; a condition that tells them apart may be missing. Identical values can stand only once.
Columns and labels:
Type in all cases: cell-based
[1] = molecular target: T1, KV7.2-L275V (Homo sapiens, UniProt O43526, L275V); assay: Two-electrode voltage-clamp of mutant KV7.2-L275V in Xenopus laevis oocytes; settings: 10 µM SMB-1, +50 mV, n = 4; read-out: current amplitude, % of control
T1 construct: expressed in transfected cells; host or cells: Xenopus laevis oocytes injected with cRNA (pGEM-HE vector)
Procedure: (§1) Point mutations were introduced using mutated oligonucleotide extension (PfuTurbo Polymerase, Stratagene, La Jolla, CA, USA) from a plasmid template harboring the cDNA of interest, digested with DpnI (Fermentas, St. Leon-Roth, Germany) and transformed into E.coli XL1 Blue cells. The construct was verified by complete DNA sequencing of the cDNA insert. cRNA was prepared from linearized human wild-type (WT) and mutant KV7 channels in the pGEM-HE vector using the T7 m-Message Machine kit (Ambion, Austin, TX, USA) according to the manufacturer's instructions.
Extraction of Xenopus laevis oocytes and injection of cRNA was performed as described previously. Oocytes were kept in Modified Barth's Saline (in mM: 88 NaCl, 1 KCl, 2.4 NaHCO3, 0.41 CaCl2, 0.82 MgSO4, 0.3 Ca(NO3)2, 15 HEPES, pH 7.4 supplemented with 100 U/mL penicillin and 100 µg/mL streptomycin) at 18°C, and currents were recorded after 2-7 days. […]
KV7 currents in Xenopus laevis oocytes were recorded using two-electrode voltage-clamp at room temperature in Ringer buffer (in mM: 115 NaCl, 2.5 KCl, 1.8 CaCl2, 0.1 MgCl2, 10 HEPES, pH 7.4) as described previously. Data was acquired using pCLAMP 10.2 software (Molecular Devices, CA, USA) and analyzed using pCLAMP 10.2 and GraphPad Prism 4.0 (GraphPad Software Inc., CA, USA). […]

[2] = molecular target: T2, KV7.2 (Homo sapiens, UniProt O43526); assay: Two-electrode voltage-clamp of KV7.2 expressed in Xenopus laevis oocytes
T2 construct: expressed in transfected cells; host or cells: Xenopus laevis oocytes injected with cRNA (pGEM-HE vector)
Procedure: as §1
(§2) Extraction of Xenopus laevis oocytes and injection of cRNA was performed as described previously. Oocytes were kept in Modified Barth's Saline (in mM: 88 NaCl, 1 KCl, 2.4 NaHCO3, 0.41 CaCl2, 0.82 MgSO4, 0.3 Ca(NO3)2, 15 HEPES, pH 7.4 supplemented with 100 U/mL penicillin and 100 µg/mL streptomycin) at 18°C, and currents were recorded after 2-7 days. The care of Xenopus laevis and the oocyte extraction procedure were performed according to national guidelines and approved by the Danish Animal Experiments Inspectorate.
(§3) KV7 currents in Xenopus laevis oocytes were recorded using two-electrode voltage-clamp at room temperature in Ringer buffer (in mM: 115 NaCl, 2.5 KCl, 1.8 CaCl2, 0.1 MgCl2, 10 HEPES, pH 7.4) as described previously. Data was acquired using pCLAMP 10.2 software (Molecular Devices, CA, USA) and analyzed using pCLAMP 10.2 and GraphPad Prism 4.0 (GraphPad Software Inc., CA, USA). Currents were elicited from a holding potential of −80 mV by 5 s steps to potentials between −100 and +50 mV in 10 mV increments, followed by a 2 s step to −120 mV.
SMB-1 was dissolved in dimethyl sulfoxide (DMSO) to obtain a concentrated stock solution. On the day of experiments the stock solution was thawed and diluted in Ringer buffer to the final concentrations. A concentration of 10 µM SMB-1 was used unless indicated otherwise. The final DMSO concentration never exceeded 0.1%.
(§4) Current – voltage (I–V) relationship curves were generated by normalizing the steady-state peak current measured at potentials between −100 and +50 mV to the current measured at +50 mV in control recordings and plotting the values against the test potential.
The voltage-dependence of activation was determined from tail current analysis using the current measured immediately after the transient capacitive current after stepping to −120 mV from potentials between −100 mV and +50 mV. Data was normalized to extend from 0–1 and the tail current-voltage relationship was fitted to the Boltzmann equation: [drawing 1] (Equation\;1) where I max is the maximum tail current, I min is the minimum tail current, V0.5 is the potential for half maximal activation and k is the slope factor. A V0.5 was calculated for each individual experiment and statistical significance was estimated by paired two-tailed Student's t-test.
Activation kinetics for KV7.2 and KV7.2-W236L was determined by fitting the traces recorded at potentials between −40 and +40 mV to a double exponential function: [drawing 2] (Equation\;2) where I(t) is the current at time t, Ifast and Islow are the current amplitudes at infinite times, and τfast and τslow are the time constants of the fast and slow components, respectively.
(§5) For investigation of deactivation kinetics the tail current traces recorded at −120 mV when stepping from the channels' respective ∼V0.5 were fitted to a single exponential function (Eq. 3).
Dose-response curves from electrophysiological experiments were made by plotting the increase in steady state current at +50 mV expressed in percentages as a function of drug concentration. The data were then analyzed by non-linear regression and fitted to the equation for sigmoidal dose-response with variable slope: [drawing 4] (Equation\;4) where R1 is the initial response, R2 is the maximum response, X is the logarithm of the drug concentration and nH is the slope (Hill coefficient) of the curve.

[3] = molecular target: T3, KV7.4-W242L (Homo sapiens, UniProt P56696, W242L); assay: Two-electrode voltage-clamp of mutant KV7.4-W242L in Xenopus laevis oocytes
T3 construct: expressed in transfected cells; host or cells: Xenopus laevis oocytes injected with cRNA (pGEM-HE vector)
T3 sequence (P56696 1-695 W242L): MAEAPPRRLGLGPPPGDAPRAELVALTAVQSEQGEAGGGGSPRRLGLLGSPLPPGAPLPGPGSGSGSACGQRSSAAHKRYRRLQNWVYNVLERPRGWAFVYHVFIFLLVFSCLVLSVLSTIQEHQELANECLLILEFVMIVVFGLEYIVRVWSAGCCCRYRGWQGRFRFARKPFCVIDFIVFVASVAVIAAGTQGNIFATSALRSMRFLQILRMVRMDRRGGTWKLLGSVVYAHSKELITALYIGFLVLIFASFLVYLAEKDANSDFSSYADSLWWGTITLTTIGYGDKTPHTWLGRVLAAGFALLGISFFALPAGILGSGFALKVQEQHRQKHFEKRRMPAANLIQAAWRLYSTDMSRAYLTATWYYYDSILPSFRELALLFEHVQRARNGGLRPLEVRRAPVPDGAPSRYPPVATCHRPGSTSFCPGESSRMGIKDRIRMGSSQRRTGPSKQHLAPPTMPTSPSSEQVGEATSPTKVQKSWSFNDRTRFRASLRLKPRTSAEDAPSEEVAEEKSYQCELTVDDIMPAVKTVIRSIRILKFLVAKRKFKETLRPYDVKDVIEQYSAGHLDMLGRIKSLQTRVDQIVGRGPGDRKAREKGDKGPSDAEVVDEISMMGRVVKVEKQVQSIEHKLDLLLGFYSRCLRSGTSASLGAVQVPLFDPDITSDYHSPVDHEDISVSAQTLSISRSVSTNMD
Procedure: as §1, §2, §3
SMB-1 was dissolved in dimethyl sulfoxide (DMSO) to obtain a concentrated stock solution. […]
as §4
The voltage-dependence of activation was determined from tail current analysis using the current measured immediately after the transient capacitive current after stepping to −120 mV from potentials between −100 mV and +50 mV. […] A V0.5 was calculated for each individual experiment and statistical significance was estimated by paired two-tailed Student's t-test.
Activation kinetics for KV7.4 and KV7.4-W242L was determined by fitting the traces recorded at potentials between −30 and +50 mV to a single exponential function: [drawing 3] […]
as §5

T2 sequence (O43526 whole entry): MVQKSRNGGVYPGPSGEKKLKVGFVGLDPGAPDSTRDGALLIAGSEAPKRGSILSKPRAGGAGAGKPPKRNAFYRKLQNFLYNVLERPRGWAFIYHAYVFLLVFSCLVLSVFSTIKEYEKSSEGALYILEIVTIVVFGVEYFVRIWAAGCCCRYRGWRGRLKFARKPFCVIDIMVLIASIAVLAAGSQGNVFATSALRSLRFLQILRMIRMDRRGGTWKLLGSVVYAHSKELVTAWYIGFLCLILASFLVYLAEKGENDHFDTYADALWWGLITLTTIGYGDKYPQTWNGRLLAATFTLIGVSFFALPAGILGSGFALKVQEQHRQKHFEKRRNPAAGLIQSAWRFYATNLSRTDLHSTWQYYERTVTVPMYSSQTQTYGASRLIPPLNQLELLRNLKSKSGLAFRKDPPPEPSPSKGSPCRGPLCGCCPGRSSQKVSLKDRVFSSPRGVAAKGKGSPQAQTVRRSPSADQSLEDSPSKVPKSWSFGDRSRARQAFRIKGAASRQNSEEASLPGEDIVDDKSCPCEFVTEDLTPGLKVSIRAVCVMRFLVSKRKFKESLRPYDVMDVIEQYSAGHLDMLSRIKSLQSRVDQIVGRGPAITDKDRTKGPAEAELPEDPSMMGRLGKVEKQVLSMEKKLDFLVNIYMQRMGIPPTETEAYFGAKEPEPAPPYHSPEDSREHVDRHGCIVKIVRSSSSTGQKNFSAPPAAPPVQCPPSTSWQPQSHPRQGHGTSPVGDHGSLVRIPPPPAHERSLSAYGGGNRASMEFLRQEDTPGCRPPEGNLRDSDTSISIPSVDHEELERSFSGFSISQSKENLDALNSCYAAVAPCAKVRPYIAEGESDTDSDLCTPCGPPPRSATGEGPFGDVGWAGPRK
T1 sequence (O43526 whole entry L275V): as the sequence (O43526 whole entry) above, with L275V counted along it

remaining activity at 10 µM [1]: 90.4 ± 4.1%
effect on τact_fast ([2]; 10 µM): did not affect
remaining activity at 10 µM ([2]; 10 µM SMB-1, +50 mV, n = 9, read-out: current amplitude, % of control): 81.7 ± 3.1%
effect on τact_slow ([2]; 10 µM, at −20 mV and above): increased
τdeact, deactivation time constant in presence of compound ([2]; 10 µM, control 20.2±1.4 ms, n = 7, p<0.001): 37.3 ± 3.3 ms
V0.5, voltage-dependence of activation in presence of compound ([2]; 10 µM, control −22.5±2.2 mV, n = 8, p<0.05): -18.0±2.7 mV
IC50 ([2]; current amplitude at +50 mV, 0.4, 2, 10 and 50 µM, n = 5): ~7.4 µM and 7.4 µM
effect on activation kinetics ([3]; 10 µM): neither any significant effect
remaining activity at 10 µM ([3]; 10 µM SMB-1, +50 mV, n = 5, read-out: current amplitude, % of control): 74.8 ± 4.2%
V0.5, voltage-dependence of activation in presence of compound ([3]; 10 µM, control 5.5±4.5 mV, n = 5, p = 0.2): 4.3±4.9 mV
τdeact, deactivation time constant in presence of compound ([3]; 10 µM, control 12.5±2.2 ms, n = 5, p = 0.5): 12.3 ± 2.2 ms
Structure (SMILES): C[C@@H](c1ccc2c(c1)N(CC1CC1)CCO2)N(C)C(=O)/C=C/c1ccccc1F [SMB-1, (E)-N-[(S)-1-(4-Cyclopropylmethyl-3,4-dihydro-2H-1,4-benzoxazin-6-yl)-ethyl]-3-(2-fluoro-phenyl)-N-methyl-acrylamide]
